In assay [1] the target is Mitogen-activated protein kinase 10 (Homo sapiens) (UniProt P53779). Briefly: Inhibition of human recombinant JNK3 at 15 nM related to control ULK1.
Assay [2] concerns the target Calcium/calmodulin-dependent protein kinase type II subunit gamma (Homo sapiens) (UniProt Q13555). Briefly: Inhibition of human recombinant CaMK2g at 15 nM in presence of ATP by radiometric assay relative to control.
In assay [3] the target is Calcium/calmodulin-dependent protein kinase kinase 2 (Homo sapiens) (UniProt Q96RR4). Briefly: Inhibition of human recombinant CaMKK2 at 40 nM in presence of ATP by radiometric assay relative to control.
The target in assay [4] is T1, Serine/threonine-protein kinase BRSK1 (Homo sapiens) (UniProt Q8TDC3).
T1 sequence (whole entry): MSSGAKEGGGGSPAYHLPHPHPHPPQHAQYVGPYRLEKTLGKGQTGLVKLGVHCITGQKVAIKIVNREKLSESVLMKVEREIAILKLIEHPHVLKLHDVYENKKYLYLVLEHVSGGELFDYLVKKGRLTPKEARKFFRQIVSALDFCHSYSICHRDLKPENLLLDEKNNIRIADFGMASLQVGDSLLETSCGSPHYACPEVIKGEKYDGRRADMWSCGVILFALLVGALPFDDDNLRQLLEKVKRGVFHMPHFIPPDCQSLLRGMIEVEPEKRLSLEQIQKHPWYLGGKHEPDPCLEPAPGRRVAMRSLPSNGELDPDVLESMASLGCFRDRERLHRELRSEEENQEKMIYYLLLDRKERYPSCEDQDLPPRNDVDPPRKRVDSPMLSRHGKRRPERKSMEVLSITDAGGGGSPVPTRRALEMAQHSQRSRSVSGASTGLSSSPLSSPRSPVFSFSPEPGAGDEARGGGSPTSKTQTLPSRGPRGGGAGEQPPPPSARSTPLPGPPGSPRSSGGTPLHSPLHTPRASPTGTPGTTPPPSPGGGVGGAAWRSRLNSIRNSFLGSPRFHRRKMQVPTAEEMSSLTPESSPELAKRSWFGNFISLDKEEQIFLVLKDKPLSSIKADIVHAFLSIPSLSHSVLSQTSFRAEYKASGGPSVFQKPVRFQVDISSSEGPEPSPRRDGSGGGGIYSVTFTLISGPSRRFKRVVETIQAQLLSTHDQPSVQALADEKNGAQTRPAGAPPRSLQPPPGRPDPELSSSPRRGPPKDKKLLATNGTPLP
In words: Inhibition of human recombinant BRSK1 at 40 nM related to control ULK1.

In assay [5] the target is T2, Mitogen-activated protein kinase kinase kinase kinase 2 (Homo sapiens) (UniProt Q12851).
T2 sequence (whole entry): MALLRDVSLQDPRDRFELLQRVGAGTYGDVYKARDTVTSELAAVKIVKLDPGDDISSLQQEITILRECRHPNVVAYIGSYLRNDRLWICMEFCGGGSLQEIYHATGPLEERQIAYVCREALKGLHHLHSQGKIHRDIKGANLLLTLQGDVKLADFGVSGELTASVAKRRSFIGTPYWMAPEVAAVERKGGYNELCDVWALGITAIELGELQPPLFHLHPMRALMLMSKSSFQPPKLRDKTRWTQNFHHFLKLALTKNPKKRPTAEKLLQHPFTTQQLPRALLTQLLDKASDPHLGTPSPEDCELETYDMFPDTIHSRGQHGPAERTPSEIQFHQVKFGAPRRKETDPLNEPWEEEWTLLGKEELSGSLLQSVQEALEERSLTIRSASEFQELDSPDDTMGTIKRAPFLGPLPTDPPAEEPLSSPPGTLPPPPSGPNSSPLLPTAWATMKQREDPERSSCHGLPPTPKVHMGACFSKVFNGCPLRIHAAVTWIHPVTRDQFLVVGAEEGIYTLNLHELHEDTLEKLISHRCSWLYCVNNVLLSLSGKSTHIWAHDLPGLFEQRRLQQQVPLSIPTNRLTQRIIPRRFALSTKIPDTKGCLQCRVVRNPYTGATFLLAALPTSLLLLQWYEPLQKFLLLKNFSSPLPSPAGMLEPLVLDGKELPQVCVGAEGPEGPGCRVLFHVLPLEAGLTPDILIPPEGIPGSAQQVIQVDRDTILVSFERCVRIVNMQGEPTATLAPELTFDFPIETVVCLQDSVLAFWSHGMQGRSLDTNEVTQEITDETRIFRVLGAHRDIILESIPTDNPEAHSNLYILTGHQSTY
In words: Inhibition of human recombinant GCK at 40 nM in presence of ATP by radiometric assay relative to control.

Assay [6] has as its target T3, Ephrin type-B receptor 4 (Homo sapiens) (UniProt P54760).
T3 sequence (whole entry): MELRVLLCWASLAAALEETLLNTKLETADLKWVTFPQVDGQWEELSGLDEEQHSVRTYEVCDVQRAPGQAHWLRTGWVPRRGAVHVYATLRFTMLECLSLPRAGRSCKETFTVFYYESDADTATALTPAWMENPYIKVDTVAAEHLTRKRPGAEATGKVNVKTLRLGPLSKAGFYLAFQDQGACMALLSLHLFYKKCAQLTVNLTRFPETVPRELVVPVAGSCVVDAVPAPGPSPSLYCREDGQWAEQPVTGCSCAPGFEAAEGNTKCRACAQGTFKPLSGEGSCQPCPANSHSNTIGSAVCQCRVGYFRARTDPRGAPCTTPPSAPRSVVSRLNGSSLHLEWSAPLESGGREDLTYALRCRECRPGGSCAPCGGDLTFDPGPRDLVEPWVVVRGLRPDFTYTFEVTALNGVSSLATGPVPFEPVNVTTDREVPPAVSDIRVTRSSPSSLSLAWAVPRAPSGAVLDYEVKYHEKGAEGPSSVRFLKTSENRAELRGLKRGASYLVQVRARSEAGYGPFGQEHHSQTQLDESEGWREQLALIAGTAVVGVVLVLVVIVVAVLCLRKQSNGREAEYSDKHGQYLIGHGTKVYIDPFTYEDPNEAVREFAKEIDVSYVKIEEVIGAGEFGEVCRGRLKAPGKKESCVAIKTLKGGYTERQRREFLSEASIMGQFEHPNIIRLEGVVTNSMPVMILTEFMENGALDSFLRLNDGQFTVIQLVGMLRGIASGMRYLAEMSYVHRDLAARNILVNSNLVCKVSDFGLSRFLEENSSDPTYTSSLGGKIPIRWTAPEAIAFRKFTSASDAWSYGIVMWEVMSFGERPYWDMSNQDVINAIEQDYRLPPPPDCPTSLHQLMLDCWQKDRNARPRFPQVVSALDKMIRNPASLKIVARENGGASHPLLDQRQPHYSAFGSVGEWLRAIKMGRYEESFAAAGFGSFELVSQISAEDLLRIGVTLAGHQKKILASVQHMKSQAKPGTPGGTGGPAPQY
In words: Inhibition of human recombinant EphB4 at 500 nM in presence of ATP by radiometric assay relative to control.

In assay [7] the target is Misshapen-like kinase 1 (Homo sapiens) (UniProt Q8N4C8). In words: Inhibition of human recombinant MINK at 500 nM in presence of ATP by radiometric assay relative to control.

As usually defined, the inhibition is the change of the read-out against control, counted positive when it falls.

Molecules are shown by their SMILES.

Misshapen-like kinase 1 (Homo sapiens), sequence (Q8N4C8 whole entry, looked up): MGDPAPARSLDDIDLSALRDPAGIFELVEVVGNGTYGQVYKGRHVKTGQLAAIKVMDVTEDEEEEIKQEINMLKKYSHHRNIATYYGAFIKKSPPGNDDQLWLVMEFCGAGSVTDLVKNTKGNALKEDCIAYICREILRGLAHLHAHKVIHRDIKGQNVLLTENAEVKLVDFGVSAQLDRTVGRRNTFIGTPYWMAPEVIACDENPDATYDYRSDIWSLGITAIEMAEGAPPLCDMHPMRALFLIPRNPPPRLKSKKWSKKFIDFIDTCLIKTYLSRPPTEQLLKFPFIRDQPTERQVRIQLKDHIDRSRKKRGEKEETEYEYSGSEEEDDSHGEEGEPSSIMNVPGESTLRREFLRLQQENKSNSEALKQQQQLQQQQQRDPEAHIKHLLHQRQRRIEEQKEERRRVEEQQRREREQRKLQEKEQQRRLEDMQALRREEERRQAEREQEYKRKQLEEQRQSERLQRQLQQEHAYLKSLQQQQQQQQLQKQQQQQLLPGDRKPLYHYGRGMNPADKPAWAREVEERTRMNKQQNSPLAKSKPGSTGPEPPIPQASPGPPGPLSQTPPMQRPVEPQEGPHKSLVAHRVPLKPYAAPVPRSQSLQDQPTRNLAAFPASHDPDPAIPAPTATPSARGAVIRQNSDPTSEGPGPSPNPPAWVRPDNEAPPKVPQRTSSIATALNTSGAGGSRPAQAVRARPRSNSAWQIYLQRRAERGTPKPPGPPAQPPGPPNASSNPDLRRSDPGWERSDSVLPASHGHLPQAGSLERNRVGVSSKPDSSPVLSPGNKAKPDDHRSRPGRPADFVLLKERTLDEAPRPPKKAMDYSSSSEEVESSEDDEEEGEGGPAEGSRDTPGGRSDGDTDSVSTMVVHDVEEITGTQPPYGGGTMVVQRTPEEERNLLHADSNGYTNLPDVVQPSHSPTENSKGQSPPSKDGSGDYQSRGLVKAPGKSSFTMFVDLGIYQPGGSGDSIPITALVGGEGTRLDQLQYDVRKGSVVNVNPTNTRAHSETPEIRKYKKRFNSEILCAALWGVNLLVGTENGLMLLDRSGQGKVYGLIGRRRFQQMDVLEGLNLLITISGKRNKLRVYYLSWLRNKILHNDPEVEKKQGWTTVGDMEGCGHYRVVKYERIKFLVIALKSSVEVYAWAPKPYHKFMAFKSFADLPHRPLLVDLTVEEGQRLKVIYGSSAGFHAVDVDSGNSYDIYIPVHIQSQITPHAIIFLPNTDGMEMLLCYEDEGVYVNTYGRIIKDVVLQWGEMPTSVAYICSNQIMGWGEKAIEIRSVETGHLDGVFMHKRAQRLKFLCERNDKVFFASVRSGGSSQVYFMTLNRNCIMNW
Mitogen-activated protein kinase 10 (Homo sapiens), sequence (P53779 whole entry): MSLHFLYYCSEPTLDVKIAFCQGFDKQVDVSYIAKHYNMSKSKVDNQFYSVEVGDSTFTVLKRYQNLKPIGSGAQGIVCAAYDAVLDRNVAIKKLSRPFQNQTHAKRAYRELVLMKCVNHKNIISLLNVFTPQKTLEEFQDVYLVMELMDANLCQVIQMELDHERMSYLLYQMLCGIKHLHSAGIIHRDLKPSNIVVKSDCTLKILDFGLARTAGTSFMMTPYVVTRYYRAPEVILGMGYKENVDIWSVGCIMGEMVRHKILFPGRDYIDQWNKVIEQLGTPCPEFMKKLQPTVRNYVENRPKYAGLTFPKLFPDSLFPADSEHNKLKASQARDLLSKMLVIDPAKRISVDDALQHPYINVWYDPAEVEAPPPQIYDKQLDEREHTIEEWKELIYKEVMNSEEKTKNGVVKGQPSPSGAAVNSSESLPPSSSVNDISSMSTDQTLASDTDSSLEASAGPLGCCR
Calcium/calmodulin-dependent protein kinase type II subunit gamma (Homo sapiens), sequence (Q13555 whole entry): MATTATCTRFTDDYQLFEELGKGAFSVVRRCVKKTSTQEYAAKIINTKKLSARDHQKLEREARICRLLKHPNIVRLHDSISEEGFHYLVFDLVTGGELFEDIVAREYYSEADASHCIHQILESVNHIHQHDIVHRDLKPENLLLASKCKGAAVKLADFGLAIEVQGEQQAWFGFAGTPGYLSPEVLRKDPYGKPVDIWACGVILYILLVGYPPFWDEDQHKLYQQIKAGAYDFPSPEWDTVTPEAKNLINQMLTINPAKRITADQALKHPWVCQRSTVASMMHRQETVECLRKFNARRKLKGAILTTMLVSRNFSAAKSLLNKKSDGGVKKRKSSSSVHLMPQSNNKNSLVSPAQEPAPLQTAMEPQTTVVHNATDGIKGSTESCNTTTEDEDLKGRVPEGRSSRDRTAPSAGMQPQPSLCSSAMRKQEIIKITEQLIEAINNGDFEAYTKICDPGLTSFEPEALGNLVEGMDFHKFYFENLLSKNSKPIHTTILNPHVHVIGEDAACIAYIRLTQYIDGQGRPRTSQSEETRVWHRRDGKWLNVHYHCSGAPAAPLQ
Calcium/calmodulin-dependent protein kinase kinase 2 (Homo sapiens), sequence (Q96RR4 2-588 limits assumed): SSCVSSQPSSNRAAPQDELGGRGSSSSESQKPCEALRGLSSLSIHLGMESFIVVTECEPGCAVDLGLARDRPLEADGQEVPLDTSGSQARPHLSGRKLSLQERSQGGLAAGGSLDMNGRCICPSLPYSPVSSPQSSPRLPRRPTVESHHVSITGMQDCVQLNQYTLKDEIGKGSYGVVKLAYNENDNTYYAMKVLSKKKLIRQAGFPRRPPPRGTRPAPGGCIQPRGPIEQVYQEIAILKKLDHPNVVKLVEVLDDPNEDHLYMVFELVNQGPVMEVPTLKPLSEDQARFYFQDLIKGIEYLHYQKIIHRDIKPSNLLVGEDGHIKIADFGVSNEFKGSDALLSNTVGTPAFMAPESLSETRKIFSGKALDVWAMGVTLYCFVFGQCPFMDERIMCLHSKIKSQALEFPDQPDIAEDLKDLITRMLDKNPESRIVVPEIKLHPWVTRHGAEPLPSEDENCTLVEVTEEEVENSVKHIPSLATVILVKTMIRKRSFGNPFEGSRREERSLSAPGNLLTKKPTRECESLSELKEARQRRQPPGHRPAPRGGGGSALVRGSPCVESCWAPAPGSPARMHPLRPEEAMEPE

Turning to `CC(C)[C@H](NC(=O)c1cc(-c2cnn3cc(-c4ccc(OCCN5CCCCC5)cc4)cnc23)cs1)C(F)(F)F`, the fold change (FC) in assay [1] is 0.08. For the same molecule, the inhibition in assay [2] was determined as 22%.
`O=C(N[C@@H](C1CC1)C(F)(F)F)c1cc(-c2cnn3cc(-c4ccc(F)cc4)cnc23)cs1`: the inhibition in assay [3] and in assay [5] was 0% in each case. Besides, the fold change (FC) in assay [4] is 0.03.
Turning to `CNC(=O)c1ccccc1Oc1nc(Nc2cc(OC)c(OC)c(OC)c2)ncc1Br`, the inhibition in assay [6] was found to be 0%; in assay [7], 4%.

For the origin of these results see ChEMBL document CHEMBL5653631, “A Potent and Selective ULK1 Inhibitor Suppresses Autophagy and Sensitizes Cancer Cells to Nutrient Stress” (iScience, 2018).
